Here are results for 1 compound from patent US12514845B2, “Ionic-liquid-based formulations for the prevention or treatment of neurological diseases” (Universidade De Aveiro, priority 2022, dated 2026).

The structures appear in SMILES notation. Read-outs that look alike come from different tables or passages of the source.

The target in one series is T1, Nox4 (Homo sapiens, UniProt Q9NPH5).
T1 construct: host or cells: drosophila
T1 sequence (Q9NPH5 1-578): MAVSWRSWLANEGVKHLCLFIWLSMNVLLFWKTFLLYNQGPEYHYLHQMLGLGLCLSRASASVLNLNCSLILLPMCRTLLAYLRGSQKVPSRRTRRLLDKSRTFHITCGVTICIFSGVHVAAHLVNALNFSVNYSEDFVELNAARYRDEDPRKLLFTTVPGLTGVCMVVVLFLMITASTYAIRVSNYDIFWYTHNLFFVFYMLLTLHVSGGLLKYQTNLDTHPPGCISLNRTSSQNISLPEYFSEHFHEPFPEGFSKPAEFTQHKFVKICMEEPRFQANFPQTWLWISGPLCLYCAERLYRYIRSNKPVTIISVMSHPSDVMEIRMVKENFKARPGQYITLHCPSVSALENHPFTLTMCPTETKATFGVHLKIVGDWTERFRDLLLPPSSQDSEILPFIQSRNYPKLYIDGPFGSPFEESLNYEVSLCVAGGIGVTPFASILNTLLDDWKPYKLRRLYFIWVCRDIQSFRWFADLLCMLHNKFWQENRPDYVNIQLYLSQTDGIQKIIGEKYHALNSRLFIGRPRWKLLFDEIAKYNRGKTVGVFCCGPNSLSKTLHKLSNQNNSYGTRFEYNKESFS
Conditions: Bae et al. 2016; cited from earlier work.

Another series deals with T2, Nox1 (Homo sapiens, UniProt Q9Y5S8).
T2 construct: host or cells: drosophila
T2 sequence (Q9Y5S8 1-564): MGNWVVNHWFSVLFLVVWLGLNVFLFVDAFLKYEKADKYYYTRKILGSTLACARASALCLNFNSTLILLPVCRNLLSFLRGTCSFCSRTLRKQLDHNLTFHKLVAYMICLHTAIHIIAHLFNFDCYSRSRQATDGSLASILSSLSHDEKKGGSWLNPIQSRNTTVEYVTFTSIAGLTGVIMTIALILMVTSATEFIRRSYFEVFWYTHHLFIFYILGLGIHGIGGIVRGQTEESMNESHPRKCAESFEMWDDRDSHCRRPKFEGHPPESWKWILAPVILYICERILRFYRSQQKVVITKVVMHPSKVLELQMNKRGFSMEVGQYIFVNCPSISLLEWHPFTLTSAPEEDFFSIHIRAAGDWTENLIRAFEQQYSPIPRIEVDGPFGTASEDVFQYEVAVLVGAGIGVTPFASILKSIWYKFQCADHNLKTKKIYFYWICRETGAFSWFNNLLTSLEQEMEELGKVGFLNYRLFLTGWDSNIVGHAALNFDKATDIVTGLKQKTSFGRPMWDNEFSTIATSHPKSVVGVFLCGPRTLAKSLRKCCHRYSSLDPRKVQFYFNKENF
To be noted: Bae et al. 2016; cited from earlier work.

The nature of series [1]: Solubility in water and PBS (saturation, UV-spectroscopy). The series is classed as physicochemical. Conditions: thermodynamic from solid, 37° C., minimum 72 h. As for the experimental part: In an embodiment, the solutes N1(4)inh and mixture comprising [Chol]2[N1(4)inh]+N1(4)inh were added in excess to a fixed volume (500 μL) of water and PBS solution. These mixtures were incubated at 37° C., under constant agitation 1150 rpm and for a minimum of 72 h, using an Eppendorf Thermomixer Comfort equipment. Throughout this process, solute was added to the mixture, whenever necessary, i.e., until the solution saturation. All samples were filtered using syringe filters ([…]) to remove possible suspended solid particles.
In an embodiment, the quantification of N1(4)inh and [Chol]2[N1(4)inh] was carried by UV-spectroscopy, using a UV-spectrophotometry (SYNERGY|HT microplate reader, BioTek) at a wavelength of 416 nm and 480 nm, respectively. The interference of the PBS with the quantification method was also ascertained and blank control samples were always used.
In an embodiment, solutes (N1(4)inh and [Chol]2[N1(4)inh]+N1(4)inh) were added in excess to a fixed volume (500 μL) of water and PBS solution. […] The quantification of N1(4)inh and [Chol]2[N1(4)inh]+N1(4)inh was carried by UV-spectroscopy, using a UV-spectrophotometry (SYNERGY|HT microplate reader, BioTek) at a wavelength of 416 nm and 480 nm, respectively. The interference of the PBS with the quantification method was also ascertained and blank control samples were always used.

Series [2] in a line: Decomposition temperature by thermogravimetric analysis (TGA). Conditions: TGA (FIG. 5). It counts as physicochemical. As for the experimental part:
In an embodiment, the decomposition temperature of [Chol]2[N1(4)inh]+N1(4)inh was evaluated by thermogravimetric analysis (TGA) and the results disclose that the mixture is thermally stable up to 200° C., as disclosed in FIG. 5.
In an embodiment, the decomposition temperature was determined by thermogravimetric analysis (TGA).

For another series, the system named is dopaminergic neurons. To be noted: experimental models of PD; Cristóvão et al. 2019; cited from earlier work.

In the case of `CN1C(=S)N(C2CCCCC2)C(=O)C1=Cc1ccc(O)cc1O` [N1(4)inh, 3-cyclohexyl-5-(2,4-dihydroxybenzylidene)-1-methyl-2-thiohydantoin], the “inhibition of Nox4” value on Nox4 is reported as “partial inhibitor”. The “inhibition of Nox1” value on Nox1 was “effective inhibitor”. For the same compound, the solubility – broadly, the concentration that dissolves in the medium under given conditions – was found to be 8 ± 1 µg/mL in series [1] (aqueous buffer, PBS, read-out: solubility in PBS) and 11 ± 2 µg/mL in series [1] (water, read-out: solubility in water). The “decomposition temperature (thermal stability)” value in series [2] came out at 200 °C. The neuroprotective potential result with dopaminergic neurons is “high neuroprotective potential”.
